Measured values reported in PubChem BioAssay (NCI).
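96-well plates; 48 h exposure; 5 concentrations. Endpoints by linear interpolation between flanking doses. Not reached: highest tested concentration assigned. Here, GI50 denotes the concentration required for 50% inhibition of growth. TGI: concentration producing complete growth inhibition.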

Columns and labels:
Experiment in all cases: inhibition of tumour cell growth, NCI panel, 48 h
COLO 205 colon = tested on: COLO 205 colon
HCC-2998 colon = tested on: HCC-2998 colon
HCT-15 colon = tested on: HCT-15 colon
LOX IMVI melanoma = tested on: LOX IMVI melanoma
OVCAR-5 ovarian = tested on: OVCAR-5 ovarian
SK-MEL-2 melanoma = tested on: SK-MEL-2 melanoma
SNB-19 CNS = tested on: SNB-19 CNS
SR leukemia = tested on: SR leukemia
TK-10 renal = tested on: TK-10 renal
UACC-62 melanoma = tested on: UACC-62 melanoma

| Compound | TGI (COLO 205 colon) [µM] | TGI (HCC-2998 colon) [µM] | TGI (HCT-15 colon) [µM] | TGI (LOX IMVI melanoma) [µM] | TGI (OVCAR-5 ovarian) [µM] | TGI (SK-MEL-2 melanoma) [µM] | TGI (SNB-19 CNS) [µM] | TGI (SR leukemia) [µM] | TGI (TK-10 renal) [µM] | TGI (UACC-62 melanoma) [µM] | GI50 (COLO 205 colon) [µM] | GI50 (HCC-2998 colon) [µM] | GI50 (HCT-15 colon) [µM] | GI50 (LOX IMVI melanoma) [µM] | GI50 (SK-MEL-2 melanoma) [µM] | GI50 (SNB-19 CNS) [µM] | GI50 (SR leukemia) [µM] | GI50 (TK-10 renal) [µM] | GI50 (UACC-62 melanoma) [µM] | GI50 (OVCAR-5 ovarian) [µM] |
| --- | --- | --- | --- | --- | --- | --- | --- | --- | --- | --- | --- | --- | --- | --- | --- | --- | --- | --- | --- | --- |
| Cc1ccc(NCCN(C)C)c2c(=O)c3cc(O)ccc3sc12 | 23.2 | 10.4 | 9.99 | 7.84 | 29.6 | 35.7 | 16.1 | 4.79 | 33.9 | 9.78 |  |  |  |  |  |  |  |  |  |  |
| COc1cc(/C=C2/Oc3c(OC)cccc3C2=O)ccc1O | > 100 | > 100 | > 100 | > 100 | > 100 | > 100 | > 100 | > 100 | > 100 | > 100 |  |  |  |  |  |  |  |  |  |  |
| C/C(=N\NC(=S)N1CCOCC1)c1nc2ncccc2[nH]1 | > 100 | > 100 | > 100 | > 100 | > 100 | 69.4 | 84.6 | > 100 | > 100 | > 100 |  |  |  |  |  |  |  |  |  |  |
| CCOC(=O)c1csc(NC(=O)C(C)N2CCOCC2)n1 (configuration not stated) | > 100 | > 100 | > 100 | > 100 | > 100 | > 100 | > 100 | > 100 | > 100 | > 100 |  |  |  |  |  |  |  |  |  |  |
| CCN(CC)CCNc1ccc([N+](=O)[O-])c2sc3cc(Cl)ccc3c(=O)c12 | > 100 | > 100 | > 100 | > 100 |  | > 100 | > 100 | > 100 | > 100 | > 100 | 3.93 | 11.1 | 2.7 | 2.8 | 21.8 | 2.77 | 4.7 | 2.97 | 3.11 |  |
| c1cncc([O][Ge]([O]c2cccnc2)([O]c2cccnc2)[O]c2cccnc2)c1 | > 100 | > 100 | > 100 | > 100 | > 100 | > 100 | > 100 | > 100 | > 100 | > 100 | > 100 | > 100 | > 100 | 47.1 | > 100 | > 100 | > 100 | > 100 | > 100 | > 100 |
| CC1(Cl)CC(C)(/C=C/Cl)C(Cl)CC1Cl (configuration not stated) |  | 32 | 27.3 |  | 34.2 | 26.3 | 31.4 | 44.6 | 76.7 | 34.1 |  |  |  |  |  |  |  |  |  |  |
| Cc1ccc(NC(=O)C(=O)Cc2cccc[n+]2[O-])cc1C | > 100 | > 100 | > 100 | > 100 | > 100 | > 100 | > 100 | > 100 | > 100 | > 100 |  |  |  |  |  |  |  |  |  |  |
| NC(Cc1ccccc1CP(=O)(O)O)C(=O)O (configuration not stated) | > 100 | > 100 | > 100 | > 100 | > 100 | > 100 | > 100 | > 100 | > 100 | > 100 |  |  |  |  |  |  |  |  |  |  |
| COC(=O)C(NC(=O)c1ccccc1)C(c1c(O)cc(O)cc1O)P(=O)(OC)OC (configuration not stated) | > 100 | > 100 | > 100 | > 100 | > 100 | > 100 | > 100 | > 100 | > 100 | > 100 |  |  |  |  |  |  |  |  |  |  |
| Cc1cc(Nc2ccc(Cl)cc2)nc(NCCCNc2ccnc3cc(Cl)ccc23)n1 | 3.31 |  |  | 3.18 | 3.09 | 3.57 |  |  | 3.19 | 3.58 | 1.66 |  |  | 1.64 | 1.86 |  |  | 1.73 | 1.79 | 1.66 |
| CC(C)=CCC/C(C)=C/C=C/C(C)=C/C1C[C@@]2(C(O)O1)[C@H](CCCO)/C(=C(/C)C=O)CC[C@]2(C)O (some centres not stated) | 13.4 | 29.4 | 31 | 28 | 55.6 | 34.6 | 35.4 | 37.2 | 62.8 |  |  |  |  |  |  |  |  |  |  |  |
| C(=C\c1c2oc(-c3ccccc3)cc(-c3ccccc3)c-2c2ccccc12)/C=C1\c2ccccc2-c2c(-c3ccccc3)cc(-c3ccccc3)[o+]c21 | > 100 | > 100 | > 100 | > 100 | > 100 | > 100 | > 100 | > 100 | > 100 | > 100 |  |  |  |  |  |  |  |  |  |  |
